Test results taken from patent US20260265235A1, “BICYCLOAMINE CARBOXAMIDE DERIVATIVE” (Sumitomo Pharma Co., Ltd., priority 2022, published 2026).

Target: T1, Human orexin receptor type 2 (Homo sapiens, UniProt O43614)
T1 construct: expressed in transfected cells; host or cells: CHO cells (transient expression, with apoaequorin)
T1 sequence (O43614 1-444): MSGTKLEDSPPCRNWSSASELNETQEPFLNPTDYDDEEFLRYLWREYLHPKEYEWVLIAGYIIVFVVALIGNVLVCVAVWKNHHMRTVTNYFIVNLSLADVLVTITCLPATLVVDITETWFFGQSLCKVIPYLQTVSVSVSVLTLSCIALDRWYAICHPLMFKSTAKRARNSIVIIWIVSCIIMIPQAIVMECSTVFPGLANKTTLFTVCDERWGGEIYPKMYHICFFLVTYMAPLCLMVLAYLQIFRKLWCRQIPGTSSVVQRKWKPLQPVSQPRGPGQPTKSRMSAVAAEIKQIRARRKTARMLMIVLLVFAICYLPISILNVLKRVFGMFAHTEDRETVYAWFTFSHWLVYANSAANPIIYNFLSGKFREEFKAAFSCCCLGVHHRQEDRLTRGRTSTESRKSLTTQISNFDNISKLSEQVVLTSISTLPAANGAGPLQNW
Experiment: Test Example 1: agonist activity for orexin receptor type 2 (aequorin luminescence, intracellular calcium mobilization in CHO cells)
Type: cell-based
Conditions: compound 10 μM; relative percentage of luminescence for the luminescence (100%) of Orexin A (100 μM); CHO cells transiently expressing human orexin receptor type 2 and apoaequorin
Method: Test Example 1: Measurement of Agonist Activity for Orexin Receptor Type 2
Human orexin receptor type 2 and apoaequorin were transiently expressed in CHO cells, and the agonist activity was evaluated based on intracellular calcium mobilization with ligand stimulation. The CHO cells transiently-expressed human orexin receptor type 2 and apoaequorin were seeded on a 384-well plate by 2,000 cells/well, and then incubated for 16-22 hours. After the plate was returned to room temperature, Coelenterazine hcp (final concentration: 1 μM) was added to the plate, and the plate was allowed to stand at room temperature for 2 hours. And then, Orexin A or each test compound was added to the plate, and the luminescence of the cells was measured with FDSS7000 (Hamamatsu Photonics K.K.), wherein Orexin A and each test compound were dissolved in DMSO (final concentration: 0.1%), and diluted with a buffer (Hanks, 20 mM HEPES, 0.1% BSA). The agonist activity of each test compound for orexin receptor type 2 was calculated as relative percentage of luminescence for the luminescence (100%) of Orexin A (100 μM).
Each agonist activity of the compounds obtained in Examples (10 μM) for orexin receptor type 2 is shown in the table below as relative percentage of luminescence for the luminescence (100%) of Orexin A (100 μM).

SMILES	Agonist Activity (%)
CC(C)N1CCN([C@H]2CCCC(F)(F)[C@@H]2NC(=O)N2C[C@H]3C[C@H](c4noc(C5CC5)n4)C[C@H]3C2)CC1 [Example 1, (3aR,5S,6aS)-5-(5-Cyclopropyl-1,2,4-oxadiazol-3-yl)-N-{(1R,6S)-2,2-difluoro-6-[4-(propan-2-yl)piperazin-1-yl]cyclohexyl}hexahydropenta[c]pyrrole-2(1H)-carboxamide]	375
CC(C)N1CCN([C@H]2CCCC(F)(F)[C@@H]2NC(=O)N2C[C@H]3C[C@H](c4noc([C@@H]5C[C@@H]5F)n4)C[C@H]3C2)CC1 [Example 2, (3aR,5S,6aS)—N-{(1R,6S)-2,2-difluoro-6-[4-(propan-2-yl)piperazin-1-yl]cyclohexyl}-5-{5-[(1S,2S)-2-fluorocyclopropyl]-1,2,4-oxadiazol-3-yl}hexahydropenta[c]pyrrole-2(1H)-carboxamide]	275
CC(C)N1CCN([C@H]2CCCC(F)(F)[C@@H]2NC(=O)N2C[C@@H]3[C@H](C2)[C@H]3c2noc(C3CC3)n2)CC1 [Example 3, (1R,5S,6R)-6-(5-cyclopropyl-1,2,4-oxadiazol-3-yl)-N-{(1R,6S)-2,2-difluoro-6-[4-(propan-2-yl)piperazin-1-yl]cyclohexyl}-3-azabicyclo[3.1.0]hexane-3-carboxamide]	217
CC(C)N1CCN([C@H]2CCCC(F)(F)[C@@H]2NC(=O)N2C[C@@H]3[C@H](C2)[C@@H]3c2noc(C3CC3)n2)CC1 [Example 4, (1R,5S,6S)-6-(5-cyclopropyl-1,2,4-oxadiazol-3-yl)-N-{(1R,6S)-2,2-difluoro-6-[4-(propan-2-yl)piperazin-1-yl]cyclohexyl}-3-azabicyclo[3.1.0]hexane-3-carboxamide]	15
CC(C)N1CCN([C@H]2CCCC(F)(F)[C@@H]2NC(=O)N2CC[C@H]3C[C@H](c4noc(C5CC5)n4)[C@H]3C2)CC1 [Example 5]	79
CC(C)N1CCN([C@H]2CCCC(F)(F)[C@@H]2NC(=O)N2C[C@@H]3C[C@](C)(c4noc(C5CC5)n4)C[C@@H]3C2)CC1 [Example 6, (3aR,5R,6aS)-5-(5-cyclopropyl-1,2,4-oxadiazol-3-yl)-N-{(1R,6S)-2,2-difluoro-6-[4-(propan-2-yl)piperazin-1-yl]cyclohexyl}-5-methylhexahydropenta[c]pyrrole-2(1H)-carboxamide]	282
CC(C)N1CCN([C@H]2CCCC(F)(F)[C@@H]2NC(=O)N2C[C@@H]3C[C@](C)(c4noc([C@@H]5C[C@@H]5F)n4)C[C@@H]3C2)CC1 [Example 7, (3aR,5R,6aS)—N-{(1R,6S)-2,2-difluoro-6-[4-(propan-2-yl)piperazin-1-yl]cyclohexyl}-5-{5-[(1S,2S)-2-fluorocyclopropyl]-1,2,4-oxadiazol-3-yl}-5-methylhexahydropenta[c]pyrrole-2(1H)-carboxamide]	328
CC(C)N1CCN([C@H]2CCCC(F)(F)[C@@H]2NC(=O)N2C[C@H]3C[C@@H](c4noc(C5CC5)n4)C[C@H]3C2)CC1 [Example 8, (3aR,5R,6aS)-5-(5-cyclopropyl-1,2,4-oxadiazol-3-yl)-N-{(1R,6S)-2,2-difluoro-6-[4-(propan-2-yl)piperazin-1-yl]cyclohexyl}hexahydropenta[c]pyrrole-2(1H)-carboxamide]	423
CC(C)N1CCN([C@H]2CCCC(F)(F)[C@@H]2NC(=O)N2C[C@H]3C[C@@H](c4ccccc4)C[C@H]3C2)CC1 [Example 9, (3aR,5R,6aS)—N-{(1R,6S)-2,2-difluoro-6-[4-(propan-2-yl)piperazin-1-yl]cyclohexyl}-5-phenylhexahydropenta[c]pyrrole-2(1H)-carboxamide]	424
CC(C)N1CCN([C@H]2CCCC(F)(F)[C@@H]2NC(=O)N2C[C@H]3CC(c4ccccc4)=C[C@H]3C2)CC1 [Example 10]	450
CC(C)N1CCN([C@H]2CCCC(F)(F)[C@@H]2NC(=O)N2C[C@@H]3CN(c4ccccc4)C[C@@H]3C2)CC1 [Example 11, (3aR,6aS)—N-{(1R,6S)-2,2-difluoro-6-[4-(propan-2-yl)piperazin-1-yl]cyclohexyl}-5-phenylhexahydropyrrolo[3,4-c]pyrrole-2(1H)-carboxamide]	477
CC(C)N1CCN([C@H]2CCCC(F)(F)[C@@H]2NC(=O)N2C[C@H]3CC(c4ccccc4)C[C@H]3C2)CC1 (stereo partly drawn) [Example 12, (3aR,5S,6aS)—N-{(1R,6S)-2,2-difluoro-6-[4-(propan-2-yl)piperazin-1-yl]cyclohexyl}-5-phenylhexahydropenta[c]pyrrole-2(1H)-carboxamide]	492
Cc1ccc([C@@H]2C[C@@H]3CN(C(=O)N[C@@H]4[C@@H](N5CCN(C(C)C)CC5)CCCC4(F)F)C[C@@H]3C2)cc1 [Example 13, (3aR,5R,6aS)—N-{(1R,6S)-2,2-difluoro-6-[4-(propan-2-yl)piperazin-1-yl]cyclohexyl}-5-(4-methylphenyl)hexahydropenta[c]pyrrole-2(1H)-carboxamide]	466
Cc1ccccc1[C@@H]1C[C@@H]2CN(C(=O)N[C@@H]3[C@@H](N4CCN(C(C)C)CC4)CCCC3(F)F)C[C@@H]2C1 [Example 14, (3aR,5R,6aS)—N-{(1R,6S)-2,2-difluoro-6-[4-(propan-2-yl)piperazin-1-yl]cyclohexyl}-5-(2-methylphenyl)hexahydropenta[c]pyrrole-2(1H)-carboxamide]	446
CC(C)N1CCN([C@H]2CCCC(F)(F)[C@@H]2NC(=O)N2C[C@H]3C[C@@H](c4ccc(F)cc4)C[C@H]3C2)CC1 [Example 15, (3aR,5R,6aS)—N-{(1R,6S)-2,2-difluoro-6-[4-(propan-2-yl)piperazin-1-yl]cyclohexyl}-5-(4-fluorophenyl)hexahydropenta[c]pyrrole-2(1H)-carboxamide]	511
CC(C)N1CCN([C@H]2CCCC(F)(F)[C@@H]2NC(=O)N2C[C@H]3C[C@@H](c4cccc(F)c4)C[C@H]3C2)CC1 [Example 16, (3aR,5R,6aS)—N-{(1R,6S)-2,2-difluoro-6-[4-(propan-2-yl)piperazin-1-yl]cyclohexyl}-5-(3-fluorophenyl)hexahydropenta[c]pyrrole-2(1H)-carboxamide]	491
CC(C)N1CCN([C@H]2CCCC(F)(F)[C@@H]2NC(=O)N2C[C@H]3C[C@@H](c4ccccc4F)C[C@H]3C2)CC1 [Example 17, (3aR,5R,6aS)—N-{(1R,6S)-2,2-difluoro-6-[4-(propan-2-yl)piperazin-1-yl]cyclohexyl}-5-(2-fluorophenyl)hexahydropenta[c]pyrrole-2(1H)-carboxamide]	315
